# Laboratory results: patent publication US6699989B1, “Antiviral and antimicrobial guanidine or biguanidine derivatives” (priority 2000, dated 2004)
# Where two headings read alike, the source gives them in different places.
# Legend:
# PBMCs = assay: Toxicity to PBMC, XTT; format: cell-based, human
# HIV-1 [1] = assay: PBMC assay, virus production by reverse transcriptase activity; format: cell-based; details: ROJO in PBMC
# Description: Method 2: PBMC Assay Method (Peripheral Blood Mononuclear cell)—Description
# This assay addresses the issue of providing a rationale for further evaluation of the compound by providing evidence of in vitro anti-HIV activity against a low passage clinical strain of HIV-1. These fresh human peripheral blood mononuclear cell assays use fresh human cells obtained from the American Red Cross from uninfected, normal human donors. Mononuclear cells from these blood samples are isolated by centrifugation and infected with low passage clinical strains of HIV-1 which have been obtained by culture of blood cells from HIV-infected patients with uninfected PBMCs. Since the PBMCs are not killed by HIV infection, endpoint quantification is performed by measurement of virus production in each well by reverse transcriptase assay or p24 ELISA. These assays provide evidence that the test compounds will have efficacy against viruses, which will likely be encountered in patients without genetic changes, introduced by passage in cell culture.
# Thus, PBMCs assay measures the amount of virus released from the infected cells into the tissue culture supernatant. The activity of the test compound is measured by its ability to reduce the level of virus production relative to the virus controls (cells+virus with no added compound). In PBMC culture we use reverse transcriptase activity in the supernatant to quantify the amount of virus production from the infected cells. Endpoint quantification is performed at 6 days post-infection.
# Fresh human peripheral blood lymphocytes (PBL) are isolated from voluntary Red Cross donors, seronegative for HIV and HBV. Leukophoresed blood is diluted 1:1 with Dulbecco's phosphate buffered saline (PBS), layered over 14 mL of Ficoll-Hypaque density gradient in a 50 mL centrifuge tube. Tubes are then centrifuged for 30 minutes at 600×g. Banded PBLs are gently aspirated from the resulting interface and subsequently washed 2× with PBS by low speed centrifugation. […] After incubation, PBLs are centrifuged and reset in RPMI 1640 with 15% FBS, 2 mM L-glutamine, 100 U/mL. penicillin, 100 ug/mL streptomycin, 10 ug/mL gentamycin, and 20 U/mL recombinant human IL-2. PBLs are maintained in this medium at a concentration of 1-2×10E6/mL with bi-weekly medium changes, until use in assay protocol. For the PBL assay, PHA-P stimulated cells from at least two normal donors are pooled, set in fresh medium at 2×10E6/mL and plated in the interior wells of a 96 well round bottom microplate at 50 μL/well. Test drug dilutions are prepared at a 2× concentration in microtiter tubes and 100 μL of each concentration is placed in appropriate wells in a standard format. 50 μL of a predetermined dilution of virus stock is placed in each test well. Wells with cells and virus alone are used for virus control. Separate plates are identically set without virus for drug cytotoxicity studies using an XTT assay system.
# In the standard PBL assay (MOI: 0.2), the assay was ended on day 7 following collection of cell free supernatant samples for reverse transcriptase activity assay. In the low MOI PBL assay (MOI: 0.02), supernatant samples were collected on day 6, day 11, and day 14 post-infection and analyzed for RT activity.
# CEM-SS cells = format: cell-based; details: CEM-SS
# HIV-1 [2] = details: CEM-SS, HIV1 RF
# Method: This is a cytoprotection assay that uses the T-lymphoblastoid tumor cell line CEM-SS and laboratory adapted strains of HIV-1. Upon infection with HIV, the CEM-SS cells form syncytia and eventually die, producing large amounts of progeny virus over the course of 4-6 days at the standard multiplicity of infection (0.01). The antiviral assay measures the ability of a given compound to inhibit the HIV-induced cell killing. […] The activity of the compound is evaluated by measuring cell viability at 6 days post-infection and comparing the viability to that obtained in cell control (cells only), virus control (cells and virus only) and toxicity control (cells and compound only) wells.
# Efficacy of the compound in cell culture is measured by increased cell viability in CEM-SS assays or reduction in virus production in PBMC assays. The data obtained yields a dose response curve which can be evaluated to determine doses which yield 25%, 50% and 95% protection from HIV-induced cell killing or virus production. […] These concentrations are reported as the TC25, TC50 and TC95 values. The ratio of toxicity to efficacy constitutes the therapeutic index TC50/IC50.
# CEM-SS cells assay measures the ability of the compound to inhibit HIV induced cell killing. The cells are stained at 6 days post-infection with the tetrazolium dye XTT which is converted to a colored formazan product by the mitochondria of viable cells. Protection from cell killing afforded by the test compound is measured by comparison to both cell controls and virus controls. Cell killing in this system is directly related to the amount of virus produced by the infected cells and XTT-formazan production is proportional to the number of viable cells in each well. Toxicity of the compound to the target cells is measured in parallel.
# CEM-SS cells (or other established human cell line used in these experiments) were passaged in T-150 flasks for use in the assay. On the day preceding the assay, the cells were split 1:2 to assure they would be in an exponential growth phase at time of infection. On the day of assay the cells were washed twice with tissue culture medium and resuspended in fresh tissue culture medium. Total cell and viability counting was performed using hemacytometer and trypan blue dye exclusion. Cell viability was greater than 95% for the cells to be utilized in the assay. The cells were pelleted and resuspended at 2.5×10^4 cells per ml in tissue culture medium. Cells were added to the drug-containing plates in a volume of 50 μl.
# A pretitered aliquot of virus was removed from the freezer (−80° C.) and allowed to thaw slowly to room temperature in a biological safety cabinet. The virus was resuspended and diluted into tissue culture medium such that the amount of virus added to each well in a volume of 50 μl will be the amount determined to give complete cell killing at 6 days post-infection. In general the virus pools produced with the IIIB isolate of HIV required the addition of 5 μl of virus per well.
# Each plate contained cell control wells (cells only), virus control wells (cells plus virus), drug toxicity control wells (cells plus drug only), drug colorimetric control wells (drug only) as well as experimental wells (drug plus cells plus virus).
# After 6 days of incubation at 37° C. in a 5% CO2 incubator the test plates were analyzed by staining with the tetrazolium dye XTT. XTT-tetrazolium is metabolized by the mitochondrial enzymes of metabolically active cells to a soluble formazan product, allowing the rapid quantitative analysis of the inhibition of HIV-induced cell killing by anti-HIV test substances. On day 6 post-infection plates were removed from the incubator and observed.
# [3] = test system: Staphylococcus aureus ATCC 6538; assay: Microdilution broth MIC assay; format: cell-based; details: ATCC6538, Sa, Mueller Hinton broth, about 17 hr
# Method: (§1) Test organisms. The test organisms are listed in Table 5 along with their source. Prior to assay, overnight bacterial slant cultures were used to inoculate Mueller Hinton broth followed by incubation for 5-7 hr. Each culture was then standardized turbidimetrically to a viable count of about 10^6 colony forming units/ml and used to inoculate the mirotiter assay plates. The viable count after addition to the plates was about 5×10^5 CFU/ml.
# (§2) Experimental design. The MIC of the test compounds for the bacterial strains was determined with a microdilution broth assay in 96 well microtiter plates. The test compounds were dissolved in DMSO and then diluted 10-fold in assay medium (Mueller Hinton broth) to obtain final concentrations of 0.128, 1.28, 12.8, and 128 μg/ml. A viability control containing DMSO, diluted in the same manner as the test compounds, was used to confirm that the DMSO was not inhibitory by itself. Trimethoprim (TMP) was used as a positive drug control. The assay plates were incubated at 37° C. for about 17 hr and each assay well observed visually for growth. The MIC was determined at the lowest concentration of drug which inhibited growth. [drawing 32]
# [4] = test system: Klebsiella pneumoniae ATCC 4352; assay: Microdilution broth MIC assay; format: cell-based; details: ATCC4352, Kp, Mueller Hinton broth, about 17 hr
# Method: as §1, §2
# [5] = test system: Pseudomonas aeruginosa ATCC 15442; assay: Microdilution broth MIC assay; format: cell-based; details: ATCC15442, Pa, Mueller Hinton broth, about 17 hr
# Method: as §1, §2
# [6] = test system: Escherichia coli ATCC 11229; assay: Microdilution broth MIC assay; format: cell-based; details: ATCC11229, Ec, Mueller Hinton broth, about 17 hr
# Method: as §1, §2
# [7] = test system: Streptococcus pneumoniae ATCC 6303; assay: Microdilution broth MIC assay; format: cell-based; details: ATCC6303, Sp, Mueller Hinton broth, about 17 hr
# Method: as §1, §2
# [8] = test system: Staphylococcus epidermidis ATCC 35984; assay: Microdilution broth MIC assay; format: cell-based; details: ATCC35984, Se, Mueller Hinton broth, about 17 hr
# Method: as §1, §2
# [9] = test system: Proteus mirabilis ATCC 9921; assay: Microdilution broth MIC assay; format: cell-based; details: ATCC9921, Pm, Mueller Hinton broth, about 17 hr
# Method: as §1, §2
compound,measurement,setting,value
"Cc1cn([C@H]2C[C@H](N=[N+]=[N-])[C@@H](CO)O2)c(=O)[nH]c1=O [AZT, reference compound]",CC50,PBMCs,> 4000 nM
same,RT ACTIVITY % VC,HIV-1 [1]; 0.0013 μM,104.6%
same,RT ACTIVITY MEAN,HIV-1 [1]; 0.0013 μM,7531.7 cpm
same,RT ACTIVITY % VC,HIV-1 [1]; 0.013 μM,77.3%
same,RT ACTIVITY MEAN,HIV-1 [1]; 0.013 μM,5566.3 cpm
same,RT ACTIVITY % VC,HIV-1 [1]; 0.04 μM,81.7%
same,RT ACTIVITY MEAN,HIV-1 [1]; 0.04 μM,5880.0 cpm
same,RT ACTIVITY % VC,HIV-1 [1]; 0.13 μM,32.3%
same,RT ACTIVITY MEAN,HIV-1 [1]; 0.13 μM,2397.0 cpm
same,RT ACTIVITY % VC,HIV-1 [1]; 0.4 μM,3.8%
same,RT ACTIVITY MEAN,HIV-1 [1]; 0.4 μM,274.0 cpm
same,RT ACTIVITY % VC,HIV-1 [1]; 1.3 μM,8.8%
same,RT ACTIVITY MEAN,HIV-1 [1]; 1.3 μM,88.0 cpm
same,RT ACTIVITY % VC,HIV-1 [1]; 4 μM,0.7%
same,RT ACTIVITY MEAN,HIV-1 [1]; 4 μM,48.3 cpm
same,IC50,"HIV-1 [1]; RT activity, read-out: IC50",100 nM
"Nc1ccn([C@H]2CC[C@@H](CO)O2)c(=O)n1 [DDC, di-deoxycytosine, reference compound]",% CELL VIABILITY,CEM-SS cells; 0.00003 μM,100%
same,CYTOTOXICITY TEST VALUES MEAN O.D.,CEM-SS cells; 0.00003 μM,1.496 O.D.
same,% CELL VIABILITY,CEM-SS cells; 0.0001 μM,93%
same,CYTOTOXICITY TEST VALUES MEAN O.D.,CEM-SS cells; 0.0001 μM,1.346 O.D.
same,% CELL VIABILITY,CEM-SS cells; 0.00032 μM,99%
same,CYTOTOXICITY TEST VALUES MEAN O.D.,CEM-SS cells; 0.00032 μM,1.428 O.D.
same,% CELL VIABILITY,CEM-SS cells; 0.001 μM,100%
same,CYTOTOXICITY TEST VALUES MEAN O.D.,CEM-SS cells; 0.001 μM,1.476 O.D.
same,% CELL VIABILITY,CEM-SS cells; 0.0032 μM,100%
same,CYTOTOXICITY TEST VALUES MEAN O.D.,CEM-SS cells; 0.0032 μM,1.450 O.D.
same,% CELL VIABILITY,CEM-SS cells; 0.01 μM,100%
same,CYTOTOXICITY TEST VALUES MEAN O.D.,CEM-SS cells; 0.01 μM,1.550 O.D.
same,% CELL VIABILITY,CEM-SS cells; 0.032 μM,100%
same,CYTOTOXICITY TEST VALUES MEAN O.D.,CEM-SS cells; 0.032 μM,1.658 O.D.
same,% CELL VIABILITY,CEM-SS cells; 0.1 μM,96%
same,CYTOTOXICITY TEST VALUES MEAN O.D.,CEM-SS cells; 0.1 μM,1.391 O.D.
same,% CELL VIABILITY,CEM-SS cells; 0.32 μM,97%
same,CYTOTOXICITY TEST VALUES MEAN O.D.,CEM-SS cells; 0.32 μM,1.400 O.D.
same,% CELL VIABILITY,CEM-SS cells; 1 μM,100%
same,CYTOTOXICITY TEST VALUES MEAN O.D.,CEM-SS cells; 1 μM,1.469 O.D.
same,% CELL VIABILITY,CEM-SS cells; 3.2 μM,100%
same,CYTOTOXICITY TEST VALUES MEAN O.D.,CEM-SS cells; 3.2 μM,1.826 O.D.
same,% CELL VIABILITY,CEM-SS cells; 10 μM,100%
same,CYTOTOXICITY TEST VALUES MEAN O.D.,CEM-SS cells; 10 μM,2.064 O.D.
same,TC 25%,CEM-SS cells; XTT,>10.00 CM
same,TC 50%,CEM-SS cells; XTT,>10.00 CM
same,TC 95%,CEM-SS cells; XTT,>10.00 CM
same,% RED. IN VIRAL CPE,HIV-1 [2]; 0.00003 μM,1%
same,ANTIVIRAL TEST VALUES MEAN O.D.,HIV-1 [2]; 0.00003 μM,0.014 O.D.
same,% RED. IN VIRAL CPE,HIV-1 [2]; 0.0001 μM,5%
same,ANTIVIRAL TEST VALUES MEAN O.D.,HIV-1 [2]; 0.0001 μM,0.062 O.D.
same,% RED. IN VIRAL CPE,HIV-1 [2]; 0.00032 μM,6%
same,ANTIVIRAL TEST VALUES MEAN O.D.,HIV-1 [2]; 0.00032 μM,0.080 O.D.
same,% RED. IN VIRAL CPE,HIV-1 [2]; 0.001 μM,4%
same,ANTIVIRAL TEST VALUES MEAN O.D.,HIV-1 [2]; 0.001 μM,0.057 O.D.
same,% RED. IN VIRAL CPE,HIV-1 [2]; 0.0032 μM,8%
same,ANTIVIRAL TEST VALUES MEAN O.D.,HIV-1 [2]; 0.0032 μM,0.109 O.D.
same,% RED. IN VIRAL CPE,HIV-1 [2]; 0.01 μM,9%
same,ANTIVIRAL TEST VALUES MEAN O.D.,HIV-1 [2]; 0.01 μM,0.119 O.D.
same,% RED. IN VIRAL CPE,HIV-1 [2]; 0.032 μM,75%
same,ANTIVIRAL TEST VALUES MEAN O.D.,HIV-1 [2]; 0.032 μM,1.019 O.D.
same,% RED. IN VIRAL CPE,HIV-1 [2]; 0.1 μM,81%
same,ANTIVIRAL TEST VALUES MEAN O.D.,HIV-1 [2]; 0.1 μM,1.099 O.D.
same,% RED. IN VIRAL CPE,HIV-1 [2]; 0.32 μM,92%
same,ANTIVIRAL TEST VALUES MEAN O.D.,HIV-1 [2]; 0.32 μM,1.246 O.D.
same,% RED. IN VIRAL CPE,HIV-1 [2]; 1 μM,86%
same,ANTIVIRAL TEST VALUES MEAN O.D.,HIV-1 [2]; 1 μM,1.166 O.D.
same,% RED. IN VIRAL CPE,HIV-1 [2]; 3.2 μM,100%
same,ANTIVIRAL TEST VALUES MEAN O.D.,HIV-1 [2]; 3.2 μM,1.754 O.D.
same,% RED. IN VIRAL CPE,HIV-1 [2]; 10 μM,100%
same,ANTIVIRAL TEST VALUES MEAN O.D.,HIV-1 [2]; 10 μM,1.687 O.D.
same,IC 25%,HIV-1 [2],0.01 CM
same,IC 95%,HIV-1 [2],2.11 CM
"COc1cc(Cc2cnc(N)nc2N)cc(OC)c1OC [TMP, Trimethoprim, reference compound]",MIC,[3],0.064 to 0.64 µg/mL
same,MIC,[4],0.064 to 0.64 µg/mL
same,MIC,[5],> 64 µg/mL
same,MIC,[6],0.064 to 0.64 µg/mL
same,MIC,[7],0.64 to 6.4 µg/mL
same,MIC,[8],> 64 µg/mL
same,MIC,[9],0.64 to 6.4 µg/mL
